Experimental data from patent US20250345350A1, “TREATING PAIN ASSOCIATED WITH CENTRAL SENSITIZATION” (Medicon Pharmaceuticals, Inc., priority 2022, published 2025).
Read-outs that look alike come from different tables or passages of the source.

Tests used:
[1] = system: paclitaxel-induced pain associated with central sensitization in C57BL/6J mice; test: Mechanical allodynia (von Frey), paclitaxel-induced pain, topical PS 8% (Example 2); assay type: in vivo, mouse
Text: (§1) Food and water were available ad libitum.
(§2) Paw withdrawn, licking or shaking were considered positive responses.

[2] = system: vincristine-induced pain associated with central sensitization in C57BL/6J mice; test: Mechanical allodynia (von Frey), vincristine-induced pain, topical PS 8% (Example 2); assay type: in vivo, mouse
Text: as §1
(§3) Protocol for the Treatment of Established Pain Associated with Central Sensitization with PS
as §2

[3] = system: oxaliplatin-induced pain associated with central sensitization in C57BL/6J mice; test: Mechanical allodynia (von Frey), oxaliplatin-induced pain, topical PS 8% (Example 2); assay type: in vivo, mouse
Text: as §1, §3, §2

[4] = Safety of PS ointment applied to hind paws of mice; assay type: in vivo, mouse; details: PS ointment thrice daily to the hind paws of mice for up to 22 days
Text: This finding is in keeping with the known safety profile of PS.

[5] = system: paclitaxel-induced CIPN in C57BL/6J mice; test: PWT (von Frey), mouse model of CIPN, oral administration (Example 5); assay type: in vivo; details: day 7; oral gavage three times a day for 7 days, PS 50 mg/kg, sulindac 33 mg/kg
Text: CIPN was induced in mice with chemotherapeutic agents using established protocols (Carozzi et al, 2010; Currie et al, 2019; Eldridge et al, 2020). […] This dosing regimen of paclitaxel produces pain associated with CIPN with time courses that are similar to those of pain after paclitaxel administration in cancer patients.
Group 1: naive mice (i.e. no paclitaxel, n=8) • 2. Group 2: paclitaxel only (n=8) • 3. Group 3: paclitaxel plus vehicle (n=8) • 4. […] Group 5: paclitaxel plus sulindac (n=8)
The PWT test was performed on day 7.

[6] = system: chronic constriction injury-induced peripheral neuropathy in C57BL/6J mice; test: Thermal allodynia PWL, chronic constriction injury model of PTPN, topical (Example 7); assay type: in vivo, mouse; details: PS 5% topical
[7] = system: chronic constriction injury-induced PTPN in C57BL/6J mice; test: PWT of operated limb, PS applied to contralateral hind paw, PTPN model (Example 8); assay type: in vivo, mouse
Protocol: Group 2: vehicle control (n=6) • 3. Group 3: PS 8% (n=6)
The PWT test was performed on day 4.
Additionally, in a second study, the speed at which PS can treat pain associated with PTPN was assessed by assessing the effect of PS on mechanical allodynia shortly after topical administration of PS. As above, PTPN was induced using chronic constriction injury, by ligating the left sciatic nerve, to induce neuropathic pain manifested as allodynia affecting the left limb of the mice. PS (as a 5% gel) was applied only once onto the contralateral (right) hind paw of mice, prior to determining mechanical allodynia on the operated limb at different time points post-dosing.
Group 2: PS 5%, assessed at t=0.5 h post-dosing (n=5) • 3. Group 3: PS 5%, assessed at t=1.0 h post-dosing (n=5) • 4. Group 4: PS 5%, assessed at t=2.0 h post-dosing (n=5)

[8] = Pharmacokinetics and biodistribution of PS upon oral administration (Example 27); assay type: in vivo, rat; details: rats, single oral dose of PS 250 mg/kg; for AUC(0-t) / Cmax / half-life: Sprague-Dawley, rat; for AUC(0-t): read-out: AUC0-24 h; for Cmax: read-out: Cmax, Mean ± SEM
Protocol: Approximately 800 μL of blood were collected through cardiac puncture and immediately centrifuged.
Tissue samples were harvested using separate dissection instruments for each tissue sample to avoid cross contamination, and snap frozen. The levels of the test drug were determined by HPLC.
As previously described (Wen et al, 2019), each plasma sample was mixed with double volume of acetonitrile and centrifuged at 13,200 rpm for 15 min. Tissue samples were weighed, ddH2O (100-300 μL, depending on tissue weight) was added, and they were homogenized. Following addition of acetonitrile (twice the volume of the homogenate), the mixture was sonicated for 10 min, centrifuged at 13,200 rpm for 15 min, and analyzed by HPLC, as reported (Wen et al, 2019).
Briefly, the HPLC system consisted of a Waters Alliance 2695 Separations Module (Milford, MA, USA) equipped with a Waters 2998 photodiode array detector (328 nm) and a Thermo Hypersil BDS C18 column (150×4.6 mm, particle size 3 pm). The mobile phase consisted of a gradient between solvent A (formic acid, CH3CN, H2O (0.1:4.9:95 v/v/v)) and solvent B (CH3CN) at a flow rate of 1 mL-min−1 at 30° C. We applied gradient elution from 30 to 100% solvent B from 0-6 min, and it was maintained at 100% solvent B until 8 min.

[9] = Preliminary in vivo evidence, topical PS hydrogel, PTPN (Example 6)
[10] = Preliminary in vivo evidence, PS to the ocular surface, corneal neuropathic pain (Example 22); details: topical PS to the ocular surface
[11] = PS to outer surface of the eyelid in a subject after LASIK (Example 22); assay type: in vivo; details: topical PS to the outer surface of the eyelid, one subject
COX-1 = COX-1 (Homo sapiens, UniProt P23219); details: background statement; cited from earlier work
Sequence of COX-1 (P23219 24-599): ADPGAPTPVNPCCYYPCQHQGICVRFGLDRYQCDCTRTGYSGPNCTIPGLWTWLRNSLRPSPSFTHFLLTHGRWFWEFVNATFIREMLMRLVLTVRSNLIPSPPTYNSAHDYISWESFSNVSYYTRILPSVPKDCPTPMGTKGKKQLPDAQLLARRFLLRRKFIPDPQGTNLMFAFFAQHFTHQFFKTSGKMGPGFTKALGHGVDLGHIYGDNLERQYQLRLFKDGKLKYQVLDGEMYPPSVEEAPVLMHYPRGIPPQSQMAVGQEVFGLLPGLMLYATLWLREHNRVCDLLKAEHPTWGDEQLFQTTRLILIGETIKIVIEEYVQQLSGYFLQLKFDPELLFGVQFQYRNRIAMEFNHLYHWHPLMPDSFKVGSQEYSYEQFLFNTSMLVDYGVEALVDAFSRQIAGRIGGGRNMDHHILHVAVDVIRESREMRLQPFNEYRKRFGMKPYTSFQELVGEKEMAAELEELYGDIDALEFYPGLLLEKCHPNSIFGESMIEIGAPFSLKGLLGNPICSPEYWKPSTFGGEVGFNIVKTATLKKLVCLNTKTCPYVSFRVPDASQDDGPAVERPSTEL

[12] = system: chronic constriction injury-induced peripheral neuropathy in C57BL/6J mice; test: PWT (von Frey), PTPN model, oral administration (Examples 9 and 10); details: day 6; PS orally three times a day for 6 days at 100 mg/kg
Protocol: Group 1: ligation only (i.e, surgical control with no treatment, n=9) • 2. Group 2: vehicle (n=9) • 3.
Mechanical allodynia was determined using the method of von Frey filaments in line with that performed in the earlier Examples. The PWT test was performed on day 6. The mechanical threshold, expressed as g, indicates the force of the von Frey filament to which the animal reacted.

[13] = system: NTG-induced migraine in mice; test: PWT (von Frey), NTG-induced migraine mouse model, oral (Example 14); details: 30 min after oral dose given 30 min after NTG; PS 50 mg/kg, sulindac 33 mg/kg
Protocol: In line with the earlier Examples, migraine was induced using 0.4 mg of NTG was administered sublingually in the form of a finely crushed 0.4 mg NTG tablet (Greenstone Brand).
Group 1: baseline (i.e, no NTG treatment, n=6) • 2. Group 2: vehicle (n=6) • 3. […] Group 4: sulindac (n=6)
Mechanical allodynia was determined using the method of von Frey filaments in line with that performed in the earlier Examples. […] The mechanical threshold, expressed as g, indicates the force of the von Frey filament to which the animal reacted.

[14] = system: paclitaxel-induced central sensitization in C57/BL mice; test: Paw withdrawal threshold (von Frey), paclitaxel model, topical PS (Example 1); details: day 10, about 30 min after last application; PS 8% hydrogel topically to both hind paws 3 times a day for 10 days
Protocol: The paclitaxel was administered into all study groups once a day for 3 days.
The first doses were administered 2 days after the last administration of paclitaxel.
The study groups were as follows: • 1. Group 1: paclitaxel only (n=9) • 2. Group 2: paclitaxel plus vehicle (n=10) • 3.
In order to determine the outcome of the treatment, pain threshold responses were measured using the well-established method of von Frey filaments. […] The results of the PWT test are expressed as force applied (gm). […] The data is expressed as percent change from the respective baseline value.

[15] = system: chronic constriction injury-induced peripheral neuropathy in C57BL/6J mice; test: PWT (von Frey), chronic constriction injury model of PTPN, topical (Example 7); details: day 14; PS 5% gel or sulindac 0.7% gel on left paw three times a day for 14 days; pregabalin once by oral gavage 1 h before
Protocol: Group 1: ligation only (i.e, surgical control with no treatment, n=5-7) • 2. Group 2: vehicle control (n=5-7) • 3. […] Group 4: 0.7% sulindac (n=5-7) • 5.
Briefly, for determining mechanical allodynia, pain threshold responses were measured using the well-established method of von Frey filaments in line with that performed in the earlier Examples. The PWT test was performed on day 14. The mechanical threshold, expressed as g, indicates the force of the von Frey filament to which the animal reacted.

[16] = system: paclitaxel-induced CIPN in C57BL/6J mice; test: Thermal allodynia PWL (radiant heat), mouse model of CIPN, oral administration (Example 5); details: day 16 of treatment, oral PS 50 mg/kg, sulindac 33 mg/kg
Text: Group 1: paclitaxel plus vehicle (n=8) • 2. […] Group 3: paclitaxel pluse sulindac (n=8)
The animal is placed into a plastic box with an elevated glass floor. The beam of the lamp probe is focused on the paw plantar surface, until the animal withdraws the paw, and sensors in the device shut off the lamp. The thermal allodynia threshold is defined as the latency time until paw withdrawal (PWL) and expressed in seconds (sec) or thermal allodynia threshold.

**Q.** Which “mechanical allodynia score, mean±SEM” value ([1]; day 0 (initiation of treatment), paclitaxel-induced pain) does the source give for `CCOP(=O)(OCC)OCCCCOC(=O)CC1=C(C)/C(=C/c2ccc([S+](C)[O-])cc2)c2ccc(F)cc21` (stereo not shown) [PS, phosphosulindac] here?
**A.** The value was 0.79 ± 0.08 g.

**Q.** What about the “mechanical allodynia score, mean±SEM” value ([1]; day 5, PS 8% ointment 3x/day to hind paws) of the same molecule?
**A.** Its value is 1.17 ± 0.07 g.

**Q.** What about the “mechanical allodynia score, mean±SEM” value ([1]; day 16, PS 8% ointment 3x/day to hind paws) of the same molecule?
**A.** The value was 2.49 ± 0.18 g.

**Q.** What about the “increase of allodynia score compared to day 0” value ([2]; PS 8% ointment 3x/day for 16 days) of the same molecule?
**A.** The value was 114%.

**Q.** What about the “mechanical allodynia score, mean±SEM” value ([2]; day 16) of the same molecule?
**A.** The value was 1.5 ± 0.09 g.

**Q.** What about the “mechanical allodynia score, mean±SEM” value ([3]; after PS treatment (day 22), PS 8% ointment 3x/day) of the same molecule?
**A.** Its value is 1.8 ± 0.09 g.

**Q.** And the “mechanical allodynia score, mean±SEM” value ([3]; day -15 baseline of PS group)?
**A.** The value was 1.76 ± 0.13 g.

**Q.** And the “topical or systemic side effects” value [4]?
**A.** Its value is “no topical or systemic side effects”.

**Q.** And the “PWT, g Mean ± SEM” value [5]?
**A.** Its value is 0.99 ± 0.13 g.

**Q.** What about the “PWL, sec Mean ± SEM” value [6] of the same molecule?
**A.** The value was 9.1 ± 2.9 s.

**Q.** And the “PWT, g Mean ± SEM” value ([7]; day 4, operated left limb, PS 8% gel on contralateral (right) hind paw 3 times a day for 4 days)?
**A.** The value was 1.16 ± 0.04 g.

**Q.** What about the “PWT, g Mean ± SEM” value ([7]; t = 0.5 h post-dosing, PS 5% gel applied once on contralateral hind paw) of the same molecule?
**A.** Its value is 1.24 ± 0.10 g.

**Q.** What about the “PWT, g Mean ± SEM” value ([7]; t = 1.0 h post-dosing, PS 5% gel applied once on contralateral hind paw) of the same molecule?
**A.** The value was 1.16 ± 0.16 g.

**Q.** What about the “PWT, g Mean ± SEM” value ([7]; t = 2.0 h post-dosing, PS 5% gel applied once on contralateral hind paw) of the same molecule?
**A.** Its value is 1.10 ± 0.19 g.

**Q.** And the AUC(0-t) ([8]; cerebellum)?
**A.** The AUC(0-t) was 0.2 µM·h.

**Q.** What about the Cmax ([8]; cerebellum) of the same molecule?
**A.** The Cmax was 300 ± 70 nM.

**Q.** And the AUC(0-t) ([8]; medulla)?
**A.** The AUC(0-t) was 0.3 µM·h.

**Q.** What about the Cmax ([8]; medulla) of the same molecule?
**A.** The Cmax was 500 ± 100 nM.

**Q.** What about the half-life ([8]; stomach) of the same molecule?
**A.** Its half-life is 3.3 h.

**Q.** What about the AUC(0-t) ([8]; stomach) of the same molecule?
**A.** The AUC(0-t) was 1280 µM·h.

**Q.** And the Cmax ([8]; stomach)?
**A.** The Cmax was 661000 ± 6500 nM.

**Q.** And the half-life ([8]; vagus nerve)?
**A.** The half-life was 3.3 h.

**Q.** What about the AUC(0-t) ([8]; vagus nerve) of the same molecule?
**A.** The AUC(0-t) was 1.7 µM·h.

**Q.** What about the Cmax ([8]; vagus nerve) of the same molecule?
**A.** The Cmax was 1200 ± 200 nM.

**Q.** And the “detection in the systemic circulation” value [8]?
**A.** The value was “No PS was detected”.

**Q.** What about the “analgesic effect on neuropathic pain associated with PTPN” value [9] of the same molecule?
**A.** The value was “striking analgesic effect”.

**Q.** What about the “analgesic effect on corneal neuropathic pain” value [10] of the same molecule?
**A.** Its value is “striking analgesic effect”.

**Q.** And the “effect on chronic pain after LASIK” value [11]?
**A.** The value was “dramatically reduced chronic pain”.

**Q.** What about the “inhibition of COX-1” value (COX-1) of the same molecule?
**A.** Its value is “does not inhibit”.

**Q.** And the “PWT, g Mean ± SEM” value [12]?
**A.** Its value is 1.63 ± 0.38 g.

**Q.** What about the “PWT, g Mean ± SEM” value [13] of the same molecule?
**A.** The value was 1.96 ± 0.49 g.

**Q.** What about the “PWT, % baseline Mean ± SEM” value [14] of the same molecule?
**A.** The value was 102.55 ± 4.92 % baseline.

**Q.** And the “PWT, g Mean ± SEM” value [15]?
**A.** Its value is 1.30 ± 0.15 g.

**Q.** What about the “PWL, sec Mean ± SEM” value [16] of the same molecule?
**A.** The value was 10.78 ± 1.1 s.
